Results taken from ChEMBL document CHEMBL1201862, “PubChem BioAssay data set” (2004).
Activity calls are given as the source filed them.

Key:
[1] = target: T1, Neuropeptides B/W receptor type 1 (Homo sapiens, UniProt P48145); test: Fluorescence-based dose response cell-based high throughput screening assay to identify antagonists of the G-protein coupled receptor 7 (GPR7). [Related pubchem assays: 1952 (Screening assay (GPR7 antagonists).), 1880 (Summary AID.)]; format: functional
T1 sequence (P48145 whole entry): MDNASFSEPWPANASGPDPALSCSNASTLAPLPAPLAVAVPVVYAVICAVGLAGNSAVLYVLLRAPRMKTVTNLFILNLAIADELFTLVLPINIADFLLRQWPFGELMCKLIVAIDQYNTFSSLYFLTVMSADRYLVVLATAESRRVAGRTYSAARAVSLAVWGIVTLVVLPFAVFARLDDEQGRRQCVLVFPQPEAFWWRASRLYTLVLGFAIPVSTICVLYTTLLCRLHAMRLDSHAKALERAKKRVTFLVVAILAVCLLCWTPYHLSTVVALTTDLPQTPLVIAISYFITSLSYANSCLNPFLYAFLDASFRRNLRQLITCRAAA

[2] = target: T2, Melanin-concentrating hormone receptor 1 (Homo sapiens, UniProt Q99705); test: Fluorescence-based counterscreen for antagonists of the G-protein coupled receptor 7 (GPR7): cell-based high throughput dose response assay to identify antagonists of the melanin-concentrating hormone receptor 1 (MCHR1).; format: functional
[3] = target: T2, Melanin-concentrating hormone receptor 1; test: Late-stage fluorescence-based counterscreen for antagonists of the G-protein coupled receptor 7 (GPR7): cell-based dose response assay to identify antagonists of the melanin-concentrating hormone receptor 1 (MCHR1). [Related pubchem assays (depositor defined):AID1861, AID1880, AID1952, AID2148, AID2251, AID2257, AID485339]; format: functional
[4] = target: T1, Neuropeptides B/W receptor type 1; test: GPR7 antagonist potency, late-stage follow-up, cell-based, fluorescence, dose response (AID 463251); format: functional
[5] = target: T3, Eukaryotic translation initiation factor 4H (Homo sapiens, UniProt Q15056); test: human eIF4H binding inhibitors, primary screen, translation initiation inhibitor project, biochemical, uHTS, fluorescence polarization (AID 2012)
[6] = target: T4, Polyadenylate-binding protein 1 (Homo sapiens, UniProt P11940); test: PABP poly(A) RNA binding inhibitors, primary screen, biochemical, fluorescence polarization, uHTS (AID 2014)
[7] = target: T3, Eukaryotic translation initiation factor 4H; test: eIF4H inhibition in translation initiation, SAR follow-up (AID 435011); format: functional
[8] = target: DNA dC->dU-editing enzyme APOBEC-3A (Homo sapiens, UniProt P31941); test: Dose Response confirmation of small molecule APOBEC3A DNA Deaminase Inhibitors via a fluorescence-based single-stranded DNA deaminase assay. [Related pubchem assays (depositor defined):AID493011, AID493024]; format: functional
[9] = target: T4, Polyadenylate-binding protein 1; test: PABP inhibition in translation initiation, SAR follow-up (AID 435018); format: functional
[10] = target: DNA dC->dU-editing enzyme APOBEC-3G (Homo sapiens, UniProt Q9HC16); format: functional;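 also: Dose-response counterscreen measuring inhibition of APOBEC3G DNA deaminase activity, run while confirming APOBEC3A inhibitors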
[11] = target: Intestinal-type alkaline phosphatase (Homo sapiens, UniProt P09923); test: Dose Response confirmation of uHTS hits from a small molecule inhibitors of human intestinal alkaline phosphatase via a luminescent assay. [Related pubchem assays (depositor defined):AID2544, AID2574]; format: functional
HeLa = test: HeLa cell cytotoxicity, dose response, cytotoxicity control, 24 h, cherry-picked samples (AID 504726); format: functional, cell-based; settings: Homo sapiens;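 also: potency for cytotoxicity as loss of luminescence signal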
ORF 73 = ORF 73 (Human herpesvirus 8, UniProt O40947); test: inhibitors of C-LANA binding to LBS DNA, dose response, biochemical, fluorescence polarization, cherry-picked samples (AID 504725); set-up: species or system Human gammaherpesvirus 8;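 also: fluorescence polarization of a labeled DNA duplex reporting LANA DNA binding; potency is for inhibitors that block LANA binding to the DNA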
Genome polyprotein = Genome polyprotein (dengue virus type 2, UniProt P29990); test: Dengue-2 NS5 methyltransferase inhibitors, primary screen, biochemical, confirmation dose response (AID 588689); format: functional
[12] = target: T5, Small ubiquitin-related modifier 1 (Homo sapiens, UniProt P63165); test: inhibitors of SUMO1 peptide binding, dose response, biochemical, fluorescence polarization, uHTS hits (AID 624382); format: functional; settings: read-out: IC50_Mean
[13] = target: T5, Small ubiquitin-related modifier 1; test: inhibitors of SUMO1 partner interactions, dose response, biochemical, FRET (AID 624383); format: functional; settings: read-out: IC50_Mean
[14] = target: T6, Rac GTPase-activating protein 1 (Homo sapiens, UniProt Q9H0H5); test: MgcRacGAP GTPase-activating activity inhibitors, confirmation, biochemical, ADP Hunter fluorescence, primary and confirmatory (AID 624330); format: functional
T6 sequence (Q9H0H5 whole entry): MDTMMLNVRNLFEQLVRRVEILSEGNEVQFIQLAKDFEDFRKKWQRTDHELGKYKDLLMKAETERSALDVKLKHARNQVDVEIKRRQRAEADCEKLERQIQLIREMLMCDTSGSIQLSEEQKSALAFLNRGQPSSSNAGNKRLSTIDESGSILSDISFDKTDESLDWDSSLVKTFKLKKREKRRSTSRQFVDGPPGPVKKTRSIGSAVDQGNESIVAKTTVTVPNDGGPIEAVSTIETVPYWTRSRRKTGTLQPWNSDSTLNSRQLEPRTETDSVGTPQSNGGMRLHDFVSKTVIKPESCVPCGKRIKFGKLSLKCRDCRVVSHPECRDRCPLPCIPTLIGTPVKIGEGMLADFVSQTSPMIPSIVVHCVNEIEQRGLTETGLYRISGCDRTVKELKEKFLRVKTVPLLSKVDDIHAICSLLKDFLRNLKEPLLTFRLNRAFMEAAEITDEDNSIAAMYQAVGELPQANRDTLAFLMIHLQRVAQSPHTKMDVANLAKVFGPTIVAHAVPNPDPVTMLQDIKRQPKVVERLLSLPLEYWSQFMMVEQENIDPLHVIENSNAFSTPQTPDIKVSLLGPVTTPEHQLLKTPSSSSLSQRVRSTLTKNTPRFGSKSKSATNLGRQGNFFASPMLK

Caspase-6 = target: T7, Caspase-6 (Homo sapiens, UniProt P55212); test: human caspase-6 inhibitors, dose response, biochemical, VEID-R110 fluorescence, cherry-pick (AID 720632)
T7 sequence (P55212 whole entry): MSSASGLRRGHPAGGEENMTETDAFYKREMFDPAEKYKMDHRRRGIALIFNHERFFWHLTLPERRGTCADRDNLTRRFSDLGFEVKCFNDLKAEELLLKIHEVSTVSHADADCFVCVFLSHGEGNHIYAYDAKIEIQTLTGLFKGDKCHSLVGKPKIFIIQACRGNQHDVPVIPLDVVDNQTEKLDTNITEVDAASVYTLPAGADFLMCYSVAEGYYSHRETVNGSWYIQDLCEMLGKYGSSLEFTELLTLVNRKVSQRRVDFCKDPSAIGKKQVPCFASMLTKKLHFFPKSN

Aspartyl aminopeptidase = Aspartyl aminopeptidase (Plasmodium falciparum 3D7, UniProt Q8I2J3)
Procathepsin L = Procathepsin L (Homo sapiens, UniProt P07711)
[15] = THP-1 cell cytotoxicity, dose response, cytotoxicity control for non-replicating M. tuberculosis project (AID 489025); format: functional
[16] = Luminescence Cell-Based Dose Retest to Confirm Inhibitors of Cancer Stem Cells. [Related pubchem assays (depositor defined):AID2717, AID2721]; format: functional; settings: Homo sapiens
[17] = HepG2 cell cytotoxicity, dose response, cytotoxicity control for non-replicating M. tuberculosis project (AID 489018); format: functional; settings: Mycobacterium tuberculosis
[18] = Vero E6 cell cytotoxicity, dose response, cytotoxicity control for non-replicating M. tuberculosis project, secondary assay (AID 492998); format: functional, VeroE6; settings: Vero C1008
[19] = target: Neurotensin receptor type 1 (Homo sapiens, UniProt P30989); format: functional;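 also: Image-based confirmatory dose-response assay measuring agonist activity at NTR1; NTR1-expressing U2OS osteosarcoma cells imaged for beta-arrestin GFP spot formation; agonist potency where compounds increase beta-arrestin recruitment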
cells = format: functional
[20] = target: G-protein coupled receptor 55 (Homo sapiens, UniProt Q9Y2T6); test: GPR55 antagonists blocking LPI-driven arrestin recruitment, primary screen, imaging, U2OS, beta-arrestin-GFP, LPI agonist (AID 2013); format: functional;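 also: antagonist potency measured as reduced agonist-driven arrestin aggregation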

T4 sequence (P11940 whole entry): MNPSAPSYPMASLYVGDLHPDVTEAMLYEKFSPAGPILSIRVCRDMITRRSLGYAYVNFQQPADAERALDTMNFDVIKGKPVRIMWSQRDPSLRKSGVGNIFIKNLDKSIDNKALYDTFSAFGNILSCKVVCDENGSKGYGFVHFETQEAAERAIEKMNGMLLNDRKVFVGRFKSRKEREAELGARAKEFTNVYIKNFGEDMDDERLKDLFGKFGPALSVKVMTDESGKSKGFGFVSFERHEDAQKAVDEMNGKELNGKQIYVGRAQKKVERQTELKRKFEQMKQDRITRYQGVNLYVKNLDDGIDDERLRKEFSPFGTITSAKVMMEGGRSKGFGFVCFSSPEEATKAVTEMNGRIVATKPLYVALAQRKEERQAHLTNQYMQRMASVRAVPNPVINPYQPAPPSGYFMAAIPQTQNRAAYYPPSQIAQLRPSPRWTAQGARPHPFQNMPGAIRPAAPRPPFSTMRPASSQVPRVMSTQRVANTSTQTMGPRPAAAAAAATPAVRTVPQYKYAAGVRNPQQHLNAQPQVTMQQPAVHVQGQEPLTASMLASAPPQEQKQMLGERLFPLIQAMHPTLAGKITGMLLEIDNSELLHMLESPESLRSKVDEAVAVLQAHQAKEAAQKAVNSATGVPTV
T5 sequence (P63165 whole entry): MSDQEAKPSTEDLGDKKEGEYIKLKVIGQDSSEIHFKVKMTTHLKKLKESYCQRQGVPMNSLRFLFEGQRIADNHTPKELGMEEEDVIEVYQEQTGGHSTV
T2 sequence (Q99705 whole entry): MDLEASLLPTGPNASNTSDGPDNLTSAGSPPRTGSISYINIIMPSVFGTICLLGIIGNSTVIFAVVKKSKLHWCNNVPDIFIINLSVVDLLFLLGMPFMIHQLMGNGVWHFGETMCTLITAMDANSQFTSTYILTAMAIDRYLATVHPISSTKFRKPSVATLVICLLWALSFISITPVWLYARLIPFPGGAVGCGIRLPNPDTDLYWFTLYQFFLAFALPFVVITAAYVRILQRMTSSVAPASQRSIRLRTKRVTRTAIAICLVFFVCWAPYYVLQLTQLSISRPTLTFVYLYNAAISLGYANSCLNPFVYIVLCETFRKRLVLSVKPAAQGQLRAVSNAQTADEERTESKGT
Chain of Procathepsin L (P07711 whole entry): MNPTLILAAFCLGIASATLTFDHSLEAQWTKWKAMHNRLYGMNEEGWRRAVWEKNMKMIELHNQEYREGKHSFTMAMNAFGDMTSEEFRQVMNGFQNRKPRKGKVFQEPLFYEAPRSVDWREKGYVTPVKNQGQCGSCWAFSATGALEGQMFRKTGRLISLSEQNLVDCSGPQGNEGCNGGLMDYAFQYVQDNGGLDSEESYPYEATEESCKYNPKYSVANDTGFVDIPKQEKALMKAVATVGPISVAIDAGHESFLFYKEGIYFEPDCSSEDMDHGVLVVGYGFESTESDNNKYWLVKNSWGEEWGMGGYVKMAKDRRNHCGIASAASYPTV
Chain of Genome polyprotein (P29990 2492-3391 limits assumed): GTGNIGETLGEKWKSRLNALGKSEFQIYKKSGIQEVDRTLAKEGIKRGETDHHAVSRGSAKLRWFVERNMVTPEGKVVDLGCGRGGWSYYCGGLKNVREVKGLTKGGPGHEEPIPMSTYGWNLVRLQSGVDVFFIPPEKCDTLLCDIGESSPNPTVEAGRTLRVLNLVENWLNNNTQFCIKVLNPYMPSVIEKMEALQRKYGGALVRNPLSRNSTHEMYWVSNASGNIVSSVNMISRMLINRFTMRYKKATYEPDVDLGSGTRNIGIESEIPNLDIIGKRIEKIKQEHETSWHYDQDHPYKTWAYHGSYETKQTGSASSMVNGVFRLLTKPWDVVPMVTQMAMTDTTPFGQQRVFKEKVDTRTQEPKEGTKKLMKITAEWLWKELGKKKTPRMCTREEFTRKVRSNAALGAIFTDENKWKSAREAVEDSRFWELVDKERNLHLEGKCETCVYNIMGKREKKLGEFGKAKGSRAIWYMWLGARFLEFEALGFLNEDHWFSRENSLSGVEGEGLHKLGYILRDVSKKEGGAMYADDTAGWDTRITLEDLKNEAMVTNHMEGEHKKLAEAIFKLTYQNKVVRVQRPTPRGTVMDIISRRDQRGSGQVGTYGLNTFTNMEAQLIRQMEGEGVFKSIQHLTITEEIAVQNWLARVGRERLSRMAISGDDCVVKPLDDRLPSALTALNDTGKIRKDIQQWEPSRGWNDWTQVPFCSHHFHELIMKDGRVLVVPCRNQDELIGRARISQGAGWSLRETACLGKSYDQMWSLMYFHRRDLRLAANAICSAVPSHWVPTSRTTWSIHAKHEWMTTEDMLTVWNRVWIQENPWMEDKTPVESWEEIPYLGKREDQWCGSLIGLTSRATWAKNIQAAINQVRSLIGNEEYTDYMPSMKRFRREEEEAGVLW
Chain of Neurotensin receptor type 1 (P30989 whole entry): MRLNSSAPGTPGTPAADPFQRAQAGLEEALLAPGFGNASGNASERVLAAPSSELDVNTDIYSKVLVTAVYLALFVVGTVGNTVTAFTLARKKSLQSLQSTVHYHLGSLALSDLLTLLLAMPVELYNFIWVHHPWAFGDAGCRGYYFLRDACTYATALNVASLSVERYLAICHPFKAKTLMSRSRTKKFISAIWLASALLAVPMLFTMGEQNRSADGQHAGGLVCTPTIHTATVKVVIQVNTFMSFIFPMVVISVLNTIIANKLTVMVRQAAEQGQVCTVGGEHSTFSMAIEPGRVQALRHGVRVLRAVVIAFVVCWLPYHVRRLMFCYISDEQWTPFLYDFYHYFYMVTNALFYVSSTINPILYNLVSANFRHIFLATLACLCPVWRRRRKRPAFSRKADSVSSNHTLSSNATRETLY
Chain of Aspartyl aminopeptidase (Q8I2J3 whole entry): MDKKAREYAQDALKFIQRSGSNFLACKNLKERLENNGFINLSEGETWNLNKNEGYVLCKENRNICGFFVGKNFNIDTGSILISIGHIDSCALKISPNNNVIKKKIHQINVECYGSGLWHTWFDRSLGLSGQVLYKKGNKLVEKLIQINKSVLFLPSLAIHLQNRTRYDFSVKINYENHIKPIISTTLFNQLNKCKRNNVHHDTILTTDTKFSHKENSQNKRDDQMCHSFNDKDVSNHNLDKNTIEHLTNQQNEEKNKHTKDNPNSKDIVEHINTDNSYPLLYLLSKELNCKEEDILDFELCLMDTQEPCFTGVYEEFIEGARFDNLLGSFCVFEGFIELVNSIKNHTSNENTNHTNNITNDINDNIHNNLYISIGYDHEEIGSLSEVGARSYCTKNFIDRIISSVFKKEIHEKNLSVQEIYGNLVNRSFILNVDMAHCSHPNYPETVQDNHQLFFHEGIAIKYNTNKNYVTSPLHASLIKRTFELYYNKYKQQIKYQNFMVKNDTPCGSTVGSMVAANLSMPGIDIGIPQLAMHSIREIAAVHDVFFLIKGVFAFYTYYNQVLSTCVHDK
Chain of Intestinal-type alkaline phosphatase (P09923 whole entry): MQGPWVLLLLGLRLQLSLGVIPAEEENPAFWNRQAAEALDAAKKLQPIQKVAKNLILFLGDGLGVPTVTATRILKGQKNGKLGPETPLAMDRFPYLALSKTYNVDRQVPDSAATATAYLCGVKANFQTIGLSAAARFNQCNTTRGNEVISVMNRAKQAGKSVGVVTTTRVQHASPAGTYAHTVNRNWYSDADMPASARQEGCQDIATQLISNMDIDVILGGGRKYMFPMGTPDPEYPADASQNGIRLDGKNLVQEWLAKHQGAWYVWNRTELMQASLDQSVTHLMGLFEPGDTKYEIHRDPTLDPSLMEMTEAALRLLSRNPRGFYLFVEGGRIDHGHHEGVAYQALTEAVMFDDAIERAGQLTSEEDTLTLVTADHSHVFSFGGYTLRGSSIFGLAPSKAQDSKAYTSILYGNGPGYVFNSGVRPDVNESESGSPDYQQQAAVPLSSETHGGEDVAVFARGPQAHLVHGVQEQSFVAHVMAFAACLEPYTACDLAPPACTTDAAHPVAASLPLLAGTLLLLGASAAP
Chain of DNA dC->dU-editing enzyme APOBEC-3A (P31941 whole entry): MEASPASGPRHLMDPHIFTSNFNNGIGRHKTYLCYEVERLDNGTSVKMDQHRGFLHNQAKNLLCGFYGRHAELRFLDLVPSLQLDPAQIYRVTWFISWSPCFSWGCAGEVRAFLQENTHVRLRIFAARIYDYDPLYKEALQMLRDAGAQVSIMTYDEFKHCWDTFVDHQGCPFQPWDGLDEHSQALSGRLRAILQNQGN
Chain of DNA dC->dU-editing enzyme APOBEC-3G (Q9HC16 whole entry): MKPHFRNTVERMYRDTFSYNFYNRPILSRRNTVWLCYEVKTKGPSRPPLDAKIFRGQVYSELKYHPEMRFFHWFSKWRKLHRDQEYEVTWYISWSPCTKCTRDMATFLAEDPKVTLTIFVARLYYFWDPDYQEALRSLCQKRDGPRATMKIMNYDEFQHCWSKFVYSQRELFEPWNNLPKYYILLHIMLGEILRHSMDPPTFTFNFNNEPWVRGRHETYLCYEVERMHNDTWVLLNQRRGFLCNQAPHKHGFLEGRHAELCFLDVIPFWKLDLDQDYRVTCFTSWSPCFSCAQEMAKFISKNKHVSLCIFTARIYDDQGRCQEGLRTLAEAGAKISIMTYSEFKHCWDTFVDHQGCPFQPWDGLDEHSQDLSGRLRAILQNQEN

**Q.** Which IC50 [1] does the source give for `COc1cc(OC)c(S(=O)(=O)N2CCCCC2)cc1S(=O)(=O)N1CCCCC1` here?
**A.** 7.02 µM (active)

**Q.** And the IC50 [2]?
**A.** > 43.8 µM (not active)

**Q.** And the IC50 [3]?
**A.** > 20 µM (inactive)

**Q.** And the IC50 [4]?
**A.** > 20 µM (inactive)

**Q.** Which results are given for `CC(C)NC(=O)C(C)N1CCN(S(=O)(=O)c2ccc3ccccc3c2)CC1` (configuration not stated)?
**A.** IC50 [5]: 88.9 µM (active); IC50 [6]: 5.92 µM (active); IC50 [7]: 27.6 µM (active); IC50 [8]: 3.38 µM (active); IC50 [9]: 20.5 µM (active); IC50 [10]: 3.72 µM (active)

**Q.** With `CCn1c2ccccc2c2cc(NC(=O)c3coc(=O)c(Br)c3)ccc21` as the molecule, how does the IC50 [11] read?
**A.** 55.6 µM (inactive)

**Q.** With `CNC(S)=Nc1cccc(C(=O)OC)c1` as the molecule, how does the AC50 (HeLa) read?
**A.** 213 µM (active)

**Q.** With `CC(=O)Nc1ccc(S(=O)(=O)Nc2nc3ccccc3nc2Nc2ccc(C(=O)O)c(O)c2)cc1` as the molecule, how does the AC50 (ORF 73) read?
**A.** 42.3 µM (active)

**Q.** And the IC50 (Genome polyprotein)?
**A.** > 100 µM (active)

**Q.** What about the IC50 [12] of the same molecule?
**A.** > 66.6 µM (inactive)

**Q.** What about the IC50 [13] of the same molecule?
**A.** 88.1 µM (inactive)

**Q.** And the IC50 [14]?
**A.** 166 µM (active)

**Q.** What about the AC50 (Caspase-6) of the same molecule?
**A.** 13.2 µM (active)

**Q.** Which IC50 (Aspartyl aminopeptidase) does the source give for `CCOC(=O)c1ccc(NC(=O)Nn2cnnc2)cc1` here?
**A.** 2.09 µM (active)

**Q.** And the IC50 (Procathepsin L)?
**A.** > 59.6 µM (not active)

**Q.** With `Cc1ccc2c(c1)c1c(n2CC(O)CNC2CCCCC2)CCCC1` (configuration not stated) as the molecule, how does the CC50 [15] read?
**A.** 12.1 µM (active)

**Q.** What about the AC50 [16] of the same molecule?
**A.** 9.21 µM (active)

**Q.** And the CC50 [17]?
**A.** 11.9 µM (active)

**Q.** What about the CC50 [18] of the same molecule?
**A.** > 20 µM (active)

**Q.** What about the EC50 [19] of the same molecule?
**A.** 17 µM (active)

**Q.** What about the IC50 (cells) of the same molecule?
**A.** 33.4 µM (active)

**Q.** For `Cc1cc(Cl)ccc1NC(=S)N(CCCN1CCOCC1)Cc1cccs1`, which IC50 [20] is on record?
**A.** 6.24 µM (active)
